Data on three compounds can be found in patent publication US20220168430A1, “THERAPEUTIC METHODS FOR TREATING HEPATITIS B” (priority 2019, published 2022).

Where “and” joins values, the source holds several entries; their conditions need not be identical. Equal entries are not always repeated. Where two headings read alike, the source gives them in different places.

One may read the inhibition as the change of the read-out against control, counted positive when it falls. As a reminder, the EC50 is the midpoint of the concentration-response curve.

One data set has as its system HepG2.2.15 cells. The class given is cell-based, human. Particulars: Cmpd 2 μM: 0.01, 0.0032, 0.001, 0.0003, 0.0001, 0. The text has this: The combination results were completed in duplicate with each assay consisting of 4 technical repeats.
The combination results were completed in duplicate with each assay consisting of 4 technical repeats. In this assay system, the combination results in additive inhibition of HBV DNA.

Another data set deals with HBV rcDNA. Briefly: Dual agent combination in HepDE19 cells, rcDNA by Quantigene 2.0 bDNA assay (Examples 5-8). The class given is cell-based, HBV; HepDE19 (HepG2 human hepatocarcinoma derived). Particulars: for inhibition at 0.002 µM / inhibition at 0.007 µM / inhibition at 0.02 µM / inhibition at 0.06 µM / inhibition at 0.001 µM / inhibition at 0.003 µM / inhibition at 0.005 µM / inhibition at 0.01 µM / inhibition at 0.04 µM / inhibition at 0.08 µM / inhibition at 0.16 µM / inhibition at 0.32 µM / EC50 / inhibition at 0.009 µM / inhibition at 0.083 µM / inhibition at 0.75 µM / inhibition at 0.039 µM / inhibition at 0.156 µM / inhibition at 1.25 µM: Hepatitis B virus; for inhibition at 0.002 µM: TAF 0.002 μM alone; for inhibition at 0.007 µM: TAF 0.007 μM alone; for inhibition at 0.06 µM: TAF 0.060 μM alone; for inhibition at 0.001 µM: TAF 0.001 μM alone; for inhibition at 0.003 µM: TAF 0.003 μM alone; for inhibition at 0.005 µM: TAF 0.005 μM alone; for inhibition at 0.04 µM: TAF 0.040 μM alone; for inhibition at 0.08 µM: TAF 0.080 μM alone; for inhibition at 0.16 µM: TAF 0.160 μM alone; for inhibition at 0.32 µM: TAF 0.320 μM alone; for inhibition at 0.039 µM: TDF 0.039 μM alone; for inhibition at 0.156 µM: TDF 0.156 μM alone; for inhibition at 1.25 µM: TDF 1.250 μM alone. On the procedure:
In vitro dual agent combination studies were conducted using the method of Prichard and Shipman 1990 (Prichard M N, Shipman C, Jr. 1990. Antiviral Res 14:181-205). The HepDE19 cell culture system is a HepG2 (human hepatocarcinoma) derived cell line that supports HBV DNA replication and cccDNA formation under control the control of a CMV Tet-off promoter system (Guo et al. 2007. J Virol 81:12472-84). HepDE19 (50,000 cells/well) were plated in 96 well collagen-coated tissue-culture treated microtiter plates in DMEM/F12 medium supplemented with 10% fetal bovine serum+1% penicillin-streptomycin with tetracycline (1 μg/mL) and incubated in a humidified incubator at 37° C. and 5% CO2 overnight. Next day, the cells were switched to fresh medium without tetracycline and incubated for 4 hrs at 37° C. and 5% CO2. The cells were switched to fresh medium and treated with inhibitor A and inhibitor B, at concentration range spanning their respective EC50 values. […] The two inhibitors were tested both singly as well as in combinations in a checkerboard fashion such that each concentration of inhibitor A was combined with each concentration of inhibitor B to determine their combination effects on inhibition of rcDNA production. There were four replicates of each concentration combination in each experiment. The plates were incubated for 7 days in a humidified incubator at 37° C. and 5% CO2. The level of rcDNA present in the wells was measured using a Quantigene 2.0 bDNA assay kit (Affymetrix, Santa Clara, Calif.) with HBV specific custom probe set (genotype D ayw) and according to the manufacturer's instructions and read using a luminescence plate reader and the relative luminescence units (RLU) data generated from each well was calculated as % inhibition of the untreated control wells and analyzed using the MacSynergy II program to determine whether the combinations were synergistic, additive or antagonistic using the interpretive guidelines established by Prichard and Shipman (Prichard M N, Shipman C, Jr. 1990. […] Each experiment was repeated at least three times and the averages and standard deviations of individual determinations was calculated to derive the conclusion. Concurrently, in each experiment, the effect of inhibitor combinations on cell viability was assessed using replicate plates in triplicates that were used to determine the ATP content as a measure of cell viability using the Cell-Titer Glo reagent (Promega, Madison, Wis.) as per the manufacturer's instructions.

[1] abbreviates: HepDE19, read-out: AVERAGE % INHIBITION, Expt 1.
Setting [2] is: HepDE19, read-out: AVERAGE % INHIBITION, Expt 2.
Where [3] appears, read: HepDE19, read-out: AVERAGE % INHIBITION, Expt 3.
[4] abbreviates: HepDE19, read-out: AVERAGE % INHIBITION, Expt 4.
[5] abbreviates: HepDE19, Expt 2, read-out: ADDITIVE INHIBITION
Setting [6] is: HepDE19, Expt 2, read-out: AVERAGE % INHIBITION

Consider `COCCCOc1cc2c(nc1OC)-c1cc(=O)c(C(=O)O)cn1[C@H](C(C)C)C2` [Compound 2], for which the “Average percent of cell viability vs control” value (shortened to “Average percent”) in the data set with HepG2.2.15 cells (ETV 0 μM) was 92.68% and 81.35% and 91.36% and 92.57% and 80.37%; with HepG2.2.15 cells (TAF 0 μM), 104.89% and 104.08% and 103.79% and 101.80% and 99.27%.

As for `CC(C)OC(=O)[C@H](C)N[P@](=O)(CO[C@H](C)Cn1cnc2c(N)ncnc21)Oc1ccccc1` [TAF, tenofovir alafenamide], the “Average percent” value in the data set on HepG2.2.15 cells (TAF 0.0002 μM) is 103.95%; in the data set with HepG2.2.15 cells (TAF 0.0006 μM), 104.32%; with HepG2.2.15 cells (TAF 0.0020 μM) it was 103.73%; in the data set with HepG2.2.15 cells (TAF 0.0064 μM), 101.18%; in the data set on HepG2.2.15 cells (TAF 0.0201 μM), 101.33%; in the data set on HepG2.2.15 cells (TAF 0.0634 μM), 103.56%. For the same compound, the “Average percent” value is recorded as 96.48% with HepG2.2.15 cells (TAF 0.2002 μM), 80.67% with HepG2.2.15 cells (TAF 0.6329 μM) and 88.67% with HepG2.2.15 cells (TAF 2.0 μM). The inhibition at 0.002 µM in the data set on HBV rcDNA (setting [1]) is -55.3%; in the data set with HBV rcDNA (setting [2]), 9.84%. Moreover, the inhibition at 0.007 µM with HBV rcDNA (setting [1]) is -30.2%; in the data set with HBV rcDNA (setting [2]), 24.9%. Besides, the inhibition at 0.02 µM was -1.17% in the data set with HBV rcDNA (HepDE19, read-out: AVERAGE % INHIBITION, Expt 1, TAF 0.020 μM alone); 65.5% in the data set with HBV rcDNA (HepDE19, read-out: AVERAGE % INHIBITION, Expt 2, TAF 0.020 μM alone); -34.3% in the data set on HBV rcDNA (HepDE19, read-out: AVERAGE % INHIBITION, Expt 3, TAF 0.020 μM alone); 36.6% in the data set on HBV rcDNA (HepDE19, read-out: AVERAGE % INHIBITION, Expt 4, TAF 0.020 μM alone). The inhibition at 0.06 µM turned out to be 67% in the data set with HBV rcDNA (setting [1]) and 89.4% in the data set with HBV rcDNA (setting [2]). Moreover, the inhibition at 0.001 µM was -134% with HBV rcDNA (setting [3]) and 9.66% with HBV rcDNA (setting [4]). In addition, the inhibition at 0.003 µM with HBV rcDNA (setting [3]) is -49.2%; in the data set on HBV rcDNA (setting [4]) it was -0.11%. Further, the results for the inhibition at 0.005 µM in the data set on HBV rcDNA (setting [3]) and in the data set with HBV rcDNA (setting [4]) were -42.3% and -1.36%, respectively. The inhibition at 0.01 µM in the data set on HBV rcDNA (HepDE19, read-out: AVERAGE % INHIBITION, Expt 3, TAF 0.010 μM alone) is -48.4%; with HBV rcDNA (HepDE19, read-out: AVERAGE % INHIBITION, Expt 4, TAF 0.010 μM alone) it was 0.94%. For the same compound, the inhibition at 0.04 µM turned out to be 37% with HBV rcDNA (setting [3]) and 61.8% in the data set on HBV rcDNA (setting [4]). The inhibition at 0.08 µM in the data set with HBV rcDNA (setting [3]) is 57.1%; in the data set on HBV rcDNA (setting [4]), 57.2%. Also, the inhibition at 0.16 µM in the data set on HBV rcDNA (setting [3]) came to 88%; in the data set with HBV rcDNA (setting [4]), 83.6%. Also, the inhibition at 0.32 µM was 94.8% with HBV rcDNA (setting [3]) and 95.9% in the data set on HBV rcDNA (setting [4]). The EC50 in the data set with HBV rcDNA (HepDE19, read-out: Avg. Inhibitor B EC50) was determined as 44 nM.

For the compound `CC(C)OC(=O)OCOP(=O)(CO[C@H](C)Cn1cnc2c(N)ncnc21)OCOC(=O)OC(C)C.O=C(O)/C=C/C(=O)O` [TDF, tenofovir disoproxil fumarate, reference compound], in the data set with HBV rcDNA, the “SYNERGY PLOT (99%) Bonferroni Adj. 55%” value turned out to be 0. In addition, the “ADDITIVE INHIBITION” value was −0.25 in the data set on HBV rcDNA (Expt 1, TDF 0.009 μM alone); 45.88 with HBV rcDNA (Expt 1, TDF 0.083 μM alone); 98 in the data set with HBV rcDNA (Expt 1, TDF 0.750 μM alone); 32.54 in the data set with HBV rcDNA (Expt 3, TDF 0.009 μM alone); 76.04 with HBV rcDNA (Expt 3, TDF 0.083 μM alone); 96.97 in the data set on HBV rcDNA (Expt 3, TDF 0.750 μM alone). Further, the inhibition at 0.009 µM in the data set with HBV rcDNA (HepDE19, Expt 1, TDF 0.009 μM alone) was -0.25%; in the data set on HBV rcDNA (HepDE19, Expt 3, TDF 0.009 μM alone) it was 32.5%. For the same compound, the inhibition at 0.083 µM in the data set with HBV rcDNA (HepDE19, Expt 1, TDF 0.083 μM alone) is 45.9%; with HBV rcDNA (HepDE19, Expt 3, TDF 0.083 μM alone), 76%. Moreover, the inhibition at 0.75 µM is 98% with HBV rcDNA (HepDE19, Expt 1, TDF 0.750 μM alone) and 97% in the data set with HBV rcDNA (HepDE19, Expt 3, TDF 0.750 μM alone). Further, the inhibition at 0.01 µM in the data set with HBV rcDNA (HepDE19, Expt 2, TDF 0.010 μM alone, read-out: ADDITIVE INHIBITION) was 4.67%; with HBV rcDNA (HepDE19, Expt 2, TDF 0.010 μM alone, read-out: AVERAGE % INHIBITION), 4.67%. Besides, the inhibition at 0.02 µM in the data set with HBV rcDNA (HepDE19, Expt 2, TDF 0.020 μM alone, read-out: ADDITIVE INHIBITION) was -12.9%; in the data set with HBV rcDNA (HepDE19, Expt 2, TDF 0.020 μM alone, read-out: AVERAGE % INHIBITION) it was -12.9%. In addition, the inhibition at 0.039 µM with HBV rcDNA (setting [5]) and with HBV rcDNA (setting [6]) was 35.9% in each case. Besides, the inhibition at 0.156 µM with HBV rcDNA (setting [5]) and with HBV rcDNA (setting [6]) was 77.1% each time. The inhibition at 1.25 µM in the data set on HBV rcDNA (setting [5]) and in the data set with HBV rcDNA (setting [6]) was 98.4% in each case. In the data set on HBV rcDNA (HepDE19, combination studies with Cmpd 1, read-out: Avg. Inhibitor B EC50), the concentration for a half-maximal effect (EC50) turned out to be 64 nM.
